Test results as given in article PMC5423977, “Safety, pharmacokinetics, and pharmacodynamics of BMS-986142, a novel reversible BTK inhibitor, in healthy participants” (European Journal of Clinical Pharmacology, 2017).

Assay: Safety and tolerability (adverse events), Study 1 MAD in healthy participants
Assay type: in vivo, human
Settings: n = 6

With `Cc1c(-c2c(F)cc(C(N)=O)c3[nH]c4c(c23)CC[C@H](C(C)(C)O)C4)cccc1-n1c(=O)c2cccc(F)c2n(C)c1=O` [BMS-986142, 6-fluoro-5-(R)-(3-(S)-(8-fluoro-1-methyl-2,4-dioxo-1,2-dihydroquinazolin-3(4H)-yl)-2-methylphenyl)-2-(S)-(2-hydroxypropan-2-yl)-2,3,4,9-tetrahydro-1H-carbazole-8-carboxamide] the “AE SOC: Ear and labyrinth disorders” value (MAD 25 mg QD) was 0 n (%), the “AE SOC: Eye disorders” value (MAD 25 mg QD) was 1 (16.7) n (%) and the “AE SOC: Gastrointestinal Disorders” value (MAD 25 mg QD) was 0 n (%). For the same molecule, the “AE SOC: Infections and infestations” value (MAD 25 mg QD) was 0 n (%), the “AE SOC: Injury, poisoning and procedural complications” value (from here on “AE SOC: Injury”) (MAD 25 mg QD) was 1 (16.7) n (%) and the “AE SOC: Investigations” value (MAD 25 mg QD) was 0 n (%). For the same molecule, the “AE SOC: Musculoskeletal and connective tissue disorders” value (MAD 25 mg QD) was 0 n (%), the “AE SOC: Nervous system disorders” value (MAD 25 mg QD) was 0 n (%) and the “AE SOC: Psychiatric disorders” value (MAD 25 mg QD) was 0 n (%). For the same molecule, the “AE SOC: Respiratory, thoracic and mediastinal disorders” value (from here on “AE SOC: Respiratory”) (MAD 25 mg QD) was 1 (16.7) n (%), the “AE SOC: Skin and subcutaneous tissue disorders” value (MAD 25 mg QD) was 0 n (%) and the “AE: Abdominal pain” value (MAD 25 mg QD) was 0 n (%). For the same molecule, the “AE: Back pain” value (MAD 25 mg QD) was 0 n (%), the “AE: Blood creatinine phosphokinase increased” value (MAD 25 mg QD) was 0 n (%) and the “AE: Cerumen impaction” value (MAD 25 mg QD) was 0 n (%). For the same molecule, the “AE: Cough” value (MAD 25 mg QD) was 1 (16.7) n (%), the “AE: Diarrhoea” value (MAD 25 mg QD) was 0 n (%) and the “AE: Eye pain” value (MAD 25 mg QD) was 1 (16.7) n (%). For the same molecule, the “AE: Haemoptysis” value (MAD 25 mg QD) was 0 n (%), the “AE: Headache” value (MAD 25 mg QD) was 0 n (%) and the “AE: Psychotic disorder” value (MAD 25 mg QD) was 0 n (%). The “AE: Rash” value (MAD 25 mg QD) was 0 n (%), the “AE: Somnolence” value (MAD 25 mg QD) was 0 n (%) and the “AE: Syncope” value (MAD 25 mg QD) was 0 n (%). For the same molecule, the “AE: Thermal burn” value (MAD 25 mg QD) was 1 (16.7) n (%), the “AE: Throat irritation” value (MAD 25 mg QD) was 0 n (%) and the “AE: Upper respiratory tract infection” value (MAD 25 mg QD) was 0 n (%). The “Total subjects with an event” value (MAD 25 mg QD) was 2 (33.3) n (%), the “AE SOC: Ear and labyrinth disorders” value (MAD 75 mg QD) was 1 (16.7) n (%) and the “AE SOC: Eye disorders” value (MAD 75 mg QD) was 0 n (%). For the same molecule, the “AE SOC: Gastrointestinal Disorders” value (MAD 75 mg QD) was 2 (33.3) n (%), the “AE SOC: Infections and infestations” value (MAD 75 mg QD) was 0 n (%) and the “AE SOC: Injury” value (MAD 75 mg QD) was 0 n (%). For the same molecule, the “AE SOC: Investigations” value (MAD 75 mg QD) was 0 n (%), the “AE SOC: Musculoskeletal and connective tissue disorders” value (MAD 75 mg QD) was 0 n (%) and the “AE SOC: Nervous system disorders” value (MAD 75 mg QD) was 1 (16.7) n (%). The “AE SOC: Psychiatric disorders” value (MAD 75 mg QD) was 1 (16.7) n (%), the “AE SOC: Respiratory” value (MAD 75 mg QD) was 1 (16.7) n (%) and the “AE SOC: Skin and subcutaneous tissue disorders” value (MAD 75 mg QD) was 0 n (%). For the same molecule, the “AE: Abdominal pain” value (MAD 75 mg QD) was 1 (16.7) n (%), the “AE: Back pain” value (MAD 75 mg QD) was 0 n (%) and the “AE: Blood creatinine phosphokinase increased” value (MAD 75 mg QD) was 0 n (%). The “AE: Cerumen impaction” value (MAD 75 mg QD) was 1 (16.7) n (%), the “AE: Cough” value (MAD 75 mg QD) was 0 n (%) and the “AE: Diarrhoea” value (MAD 75 mg QD) was 1 (16.7) n (%). For the same molecule, the “AE: Eye pain” value (MAD 75 mg QD) was 0 n (%), the “AE: Haemoptysis” value (MAD 75 mg QD) was 1 (16.7) n (%) and the “AE: Headache” value (MAD 75 mg QD) was 1 (16.7) n (%). For the same molecule, the “AE: Psychotic disorder” value (MAD 75 mg QD) was 1 (16.7) n (%), the “AE: Rash” value (MAD 75 mg QD) was 0 n (%) and the “AE: Somnolence” value (MAD 75 mg QD) was 0 n (%). The “AE: Syncope” value (MAD 75 mg QD) was 0 n (%), the “AE: Thermal burn” value (MAD 75 mg QD) was 0 n (%) and the “AE: Throat irritation” value (MAD 75 mg QD) was 1 (16.7) n (%). For the same molecule, the “AE: Upper respiratory tract infection” value (MAD 75 mg QD) was 0 n (%), the “Total subjects with an event” value (MAD 75 mg QD) was 4 (66.7) n (%) and the “AE SOC: Ear and labyrinth disorders” value (MAD 200 mg QD) was 0 n (%). The “AE SOC: Eye disorders” value (MAD 200 mg QD) was 0 n (%), the “AE SOC: Gastrointestinal Disorders” value (MAD 200 mg QD) was 0 n (%) and the “AE SOC: Infections and infestations” value (MAD 200 mg QD) was 1 (16.7) n (%). For the same molecule, the “AE SOC: Injury” value (MAD 200 mg QD) was 0 n (%), the “AE SOC: Investigations” value (MAD 200 mg QD) was 0 n (%) and the “AE SOC: Musculoskeletal and connective tissue disorders” value (MAD 200 mg QD) was 1 (16.7) n (%). For the same molecule, the “AE SOC: Nervous system disorders” value (MAD 200 mg QD) was 0 n (%), the “AE SOC: Psychiatric disorders” value (MAD 200 mg QD) was 0 n (%) and the “AE SOC: Respiratory” value (MAD 200 mg QD) was 0 n (%). The “AE SOC: Skin and subcutaneous tissue disorders” value (MAD 200 mg QD) was 0 n (%), the “AE: Abdominal pain” value (MAD 200 mg QD) was 0 n (%) and the “AE: Back pain” value (MAD 200 mg QD) was 1 (16.7) n (%). For the same molecule, the “AE: Blood creatinine phosphokinase increased” value (MAD 200 mg QD) was 0 n (%), the “AE: Cerumen impaction” value (MAD 200 mg QD) was 0 n (%) and the “AE: Cough” value (MAD 200 mg QD) was 0 n (%). For the same molecule, the “AE: Diarrhoea” value (MAD 200 mg QD) was 0 n (%), the “AE: Eye pain” value (MAD 200 mg QD) was 0 n (%) and the “AE: Haemoptysis” value (MAD 200 mg QD) was 0 n (%). The “AE: Headache” value (MAD 200 mg QD) was 0 n (%), the “AE: Psychotic disorder” value (MAD 200 mg QD) was 0 n (%) and the “AE: Rash” value (MAD 200 mg QD) was 0 n (%). For the same molecule, the “AE: Somnolence” value (MAD 200 mg QD) was 0 n (%), the “AE: Syncope” value (MAD 200 mg QD) was 0 n (%) and the “AE: Thermal burn” value (MAD 200 mg QD) was 0 n (%). For the same molecule, the “AE: Throat irritation” value (MAD 200 mg QD) was 0 n (%), the “AE: Upper respiratory tract infection” value (MAD 200 mg QD) was 1 (16.7) n (%) and the “Total subjects with an event” value (MAD 200 mg QD) was 1 (16.7) n (%). The “AE SOC: Ear and labyrinth disorders” value (MAD 350 mg QD) was 0 n (%), the “AE SOC: Eye disorders” value (MAD 350 mg QD) was 0 n (%) and the “AE SOC: Gastrointestinal Disorders” value (MAD 350 mg QD) was 0 n (%). For the same molecule, the “AE SOC: Infections and infestations” value (MAD 350 mg QD) was 0 n (%), the “AE SOC: Injury” value (MAD 350 mg QD) was 0 n (%) and the “AE SOC: Investigations” value (MAD 350 mg QD) was 0 n (%). The “AE SOC: Musculoskeletal and connective tissue disorders” value (MAD 350 mg QD) was 0 n (%).
